Assays:
soybean lipoxygenase = molecular target: T1, soybean lipoxygenase (Glycine max, UniProt P08170); assay: Soybean lipoxygenase inhibition in vitro; type: biochemical; conditions: for IC50: read-out: LOX IC50 μΜ
T1 construct: purchased Sigma Chemical, Co. (St. Louis, MO, USA)
T1 sequence (P08170 1-839): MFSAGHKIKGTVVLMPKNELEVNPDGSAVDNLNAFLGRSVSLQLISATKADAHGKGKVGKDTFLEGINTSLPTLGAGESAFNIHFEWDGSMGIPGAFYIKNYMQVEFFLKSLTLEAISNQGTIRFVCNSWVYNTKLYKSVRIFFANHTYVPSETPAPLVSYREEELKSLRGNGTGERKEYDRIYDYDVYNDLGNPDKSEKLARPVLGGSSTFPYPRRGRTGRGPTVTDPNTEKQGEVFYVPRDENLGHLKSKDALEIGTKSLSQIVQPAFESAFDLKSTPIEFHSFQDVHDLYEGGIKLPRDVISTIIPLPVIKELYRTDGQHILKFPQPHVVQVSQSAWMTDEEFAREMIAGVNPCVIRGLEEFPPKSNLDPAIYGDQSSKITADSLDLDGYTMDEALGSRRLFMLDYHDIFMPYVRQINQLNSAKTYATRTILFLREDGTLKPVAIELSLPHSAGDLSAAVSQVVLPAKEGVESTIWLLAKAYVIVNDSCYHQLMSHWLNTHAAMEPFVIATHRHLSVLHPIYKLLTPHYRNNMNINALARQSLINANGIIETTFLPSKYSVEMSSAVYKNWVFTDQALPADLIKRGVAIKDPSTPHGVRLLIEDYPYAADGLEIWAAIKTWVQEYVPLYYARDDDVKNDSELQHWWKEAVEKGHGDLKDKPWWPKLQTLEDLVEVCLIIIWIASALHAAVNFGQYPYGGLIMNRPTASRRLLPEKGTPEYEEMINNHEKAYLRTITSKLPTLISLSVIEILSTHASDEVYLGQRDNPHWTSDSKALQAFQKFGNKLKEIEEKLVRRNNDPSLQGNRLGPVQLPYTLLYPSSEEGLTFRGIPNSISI
Protocol: 2.2.2.4 Soybean lipoxygenase inhibition study in vitro [14]
In vitro study was evaluated as reported previously. The tested compounds dissolved in ethanol were incubated at room temperature with sodium linoleate (0.1 mM) and 0.2 ml of enzyme solution (1/9 x10^-4 w/v in saline). […] Several concentrations were used for the determination of IC50 values (Table 5).
LO is the key enzyme in leukotriene biosynthesis. Leukotrienes derived from the biotransformation of arachidonic acid catalyzed by 5-lipoxygenase (5-LO), are important inflammatory mediators implicated in several diseases. LOs play a role in membrane lipid peroxidation by forming hydroperoxides in the lipid bilayer. […] Most of the LO inhibitors are antioxidants or free radical scavengers, since lipoxygenation occurs via a carbon-centered radical. The evaluation of the novel coumarin hybrids against soybean lipoxygenase LO was accomplished by the UV-based enzyme assay.

[1] = Reducing activity of the stable radical DPPH; conditions: 100 μM compound, after 20 min
Protocol: 2.2.2.1 Determination of the reducing activity of the stable radical 1, 1-diphenyl-picrylhydrazyl (DPPH)
To a solution of DPPH (100μM) in absolute ethanol an equal volume of the compounds dissolved in ethanol was added. As control solution ethanol was used. The concentration of the solutions of the compounds was 100μM. After 20 and 60 min at room temperature the absorbance was recorded at 517 nm (Table 5). NDGA was used as a standard.
The compounds were studied for their antioxidant activity by the use of the stable 2,2-diphenyl-1-picrylhydrazyl radical (DPPH) at concentration 0.1mM after 20 min. […] This purple colour generally disappears in the presence of an antioxidant. The reduction of absorbance is a measure of the free DPPH due to the action of the antioxidant. The antioxidant activity was expressed as the RA% (Reducing Activity). […] Within the group of derivatives 4 the presence of the morpholinyl or piperidinyl rings at position A as well as the carbonyl group at position B, hinder the interaction of the compounds to the free stable radical DPPH.

[2] = Inhibition of linoleic acid lipid peroxidation (AAPH); conditions: 100 μM compound, 37°C
Protocol: 2.2.2.3 Inhibition of linoleic acid lipid peroxidation
Production of conjugated diene hydroperoxide by oxidation of linoleic acid sodium salt in an aqueous solution was monitored at 234 nm. 2,2’-Azobis(2-amidinopropane) dihydrochloride (AAPH) was used as a free radical initiator. 10 μl of the 16 mM linoleic acid sodium salt solution was added to the UV cuvette containing 0.93 ml of 0.05 M phosphate buffer, pH 7.4 prethermostated at 37°C. The oxidation reaction was initiated at 37°C under air by the addition of 50 μl of 40 mM AAPH solution. Oxidation was carried out in the presence of 10 μl of the examined compounds (stock solution in DMSO). In the assay without antioxidant, lipid oxidation was measured in the presence of the same level of DMSO. The rate of oxidation at 37°C was monitored by recording the increase in absorption at 234 nm caused by conjugated diene hydroperoxides (Table 5). Trolox was used as a standard.
Anti-lipid peroxidation activity. The water-soluble azo compound AAPH has been extensively used as a clean and controllable source of thermally produced alkyl peroxyl free radicals, through spontaneous thermal decomposition. […] In the AAPH assay, the highly reactive alkylperoxyl radicals are intercepted mainly by a hydrogen atom transfer (HAT) from the antioxidant.

[3] = Competition of the tested compounds with DMSO for hydroxyl radicals; conditions: 100 μM compound, Fe3+/ascorbic acid, 30 min, 37°C
Protocol: 2.2.2.2 Competition of the tested compounds with DMSO for hydroxyl radicals
The hydroxyl radicals generated by the Fe ^3+ /ascorbic acid system, were detected according to Nash, by the determination of formaldehyde produced from the oxidation of DMSO. The reaction mixture contained EDTA (0.1 mM), Fe ^3+ (167 μM), DMSO (33 mM) in phosphate buffer (50 mM, pH 7.4), the tested compounds (concentration 0.1mM) and ascorbic acid (10 mM). After 30 min of incubation (37°C) the reaction was stopped with CCl3COOH (17% w/v) (Table 5). Trolox was used as a standard.
Superoxide (O2^-.) anion and hydroxyl radical (^.OH) are free radical species of potential importance. In the acidic conditions of ischemic brain, O2^-. is probably protonated to give HO2^-. species. Iron released from damaged brain cells is more likely to be readily available to catalyze the generation of OH radicals. Among the ROS, the hydroxyl (^•OH) free radical is possibly the most toxic, as it reacts with a number of biological important molecules. Polyunsaturated fatty acids are found in high concentrations in the CNS, and are particularly vulnerable by free radicals. Thus, we tried to test the ability of our compounds to scavenge hydroxyl radicals. […] All the derivatives of series 13 (except of 13i) present high antioxidant activity (80-100%) which is not able to be correlated with any specific structural characteristic since all contain a coumarin, a purine and an isoxazolyl moiery. […] It seems that the overall molar configuration influences the response. However, antioxidants with hydrophilic or lipophilic character are both needed to act as radical scavengers in the aqueous phase or as chain-breaking antioxidants in biological membranes.

Row | Compound | IC50 (soybean lipoxygenase) | RA% @ 100μΜ (reducing activity, DPPH) [1] | melting point | LP % @ 100μΜ (inhibition of lipid peroxidation) [2] | ∙ΟΗ % @ 100μΜ (hydroxyl radical scavenging, percent inhibition of formaldehyde production) ([3]; 100 µM) | %LOX @ 100μΜ (soybean lipoxygenase; 100 μM compound) | ∙ΟΗ % @ 100μΜ (hydroxyl radical scavenging, percent inhibition of formaldehyde production) [3] | inhibition at 100 µM (soybean lipoxygenase; read-out: %LOX @ 100μΜ)
1 | O=c1ccc2ccc(OCC3=NOC(n4cnc5c(N6CCOCC6)ncnc54)C3)cc2o1 (stereo not shown) [18b] | 100 µM | 1% | 205 to 206 °C | 38% | did not present any activity and no |  |  | 
2 | O=c1ccc2ccc(OCC3=NOC(n4cnc5c(N6CCCCC6)ncnc54)C3)cc2o1 (stereo not shown) [18a, 7-{[5-(6-piperidin-1-yl-9H-purin-9-yl)-4,5-dihydroisoxazol-3-yl]methoxy}-2H-chromen-2-one] | 90 µM | 4% | 197 to 199 °C | No | did not present any activity and no |  |  | 
3 | Cc1cc(=O)oc2cc(OCC3CC(Cn4cnc5c(N6CCCCC6)ncnc54)=NO3)ccc12 (stereo not shown) [4c] |  | 17% | 186 to 187 °C | 65% | did not present any activity and no | no |  | 
4 | Cc1c(C)c2c(c(C)c1O)CCC(C)(C(=O)O)O2 (stereo not shown) [Trolox, reference compound] |  |  |  | 76% |  |  | 83% | 
5 | Cc1cc(=O)oc2ccc(OC(=O)C3CC(Cn4cnc5c(N6CCCCC6)ncnc54)=NO3)cc12 (stereo not shown) [4k, 4-Methyl-2-oxo-2H-chromen-6-yl 3-[(6-piperidin-1-yl-9H-purin-9-yl)methyl]-4,5-Dihydroisoxazole-5-Carboxylate] | 10 µM | 12% | 179 to 181 °C | 57% |  |  |  | 
6 | O=C(Oc1ccc2oc(=O)ccc2c1)C1CC(Cn2cnc3c(N4CCOCC4)ncnc32)=NO1 (stereo not shown) [4o] | 60 µM | 3% | 184 to 185 °C | 40% | did not present any activity and no |  |  | 
7 | Cc1cc(=O)oc2cc(OCC3=NOC(Cn4cnc5c(N6CCCCC6)ncnc54)C3)ccc12 (stereo not shown) [11d] | 48 µM | 13% | 144 to 145 °C | 43% | did not present any activity and no |  |  | 
8 | O=c1ccc2ccc(OCc3cc(Cn4cnc5c(N6CCOCC6)ncnc54)on3)cc2o1 [15b] | 100 µM | no | 185 to 187 °C | 52% |  |  | 48% | 
9 | O=C(Oc1ccc2oc(=O)ccc2c1)C1CC(Cn2cnc3c(N4CCCCC4)ncnc32)=NO1 (stereo not shown) [4n] | 35 µM | 17% | 175 to 177 °C | no | did not present any activity and no |  |  | 
10 | Cc1cc(=O)oc2cc(OCCC3CC(Cn4cnc5c(N6CCCC6)ncnc54)=NO3)ccc12 (stereo not shown) [4j] |  | 44% | 178 to 180 °C | 32% | did not present any activity and no |  |  | 37%

— PMC5748833, “Synthesis and Biological Evaluation of Novel Hybrid Molecules Containing Purine, Coumarin and Isoxazoline or Isoxazole Moieties” (The Open Medicinal Chemistry Journal, 2017)
